From patent EP0538297B9, “ANTIVIRAL TETRAHYDROIMIDAZO 1,4]BENZODIAZEPIN-2-(THIO)ONES” (JANSSEN PHARMACEUTICA N.V., priority 1990, dated 1992)
Values after ≈ are worked out from the molar mass of the structure shown.

What was measured:
in vitro = format: cell-based; details: human, mt-4 cells
Method: (§1) A rapid, sensitive and automated assay procedure was used for the in-vitro evaluation of anti-HIV agents. An […] T4-cell line, MT-4, which was previously shown (Koyanagi et al., Int. J. Cancer, 36, 445-451, 1985) to be highly susceptible to and permissive for HIV infection, served as the target cell line. Inhibition of the HIV-induced cytopathic effect was used as the end point. The viability of both HIV- and mock-infected cells was assessed spectrophotometrically via the in-situ reduction of 3-(4,5-dimethylthiazol-2-yl)-2,5-diphenyltetrazolium bromide (MTT). The 50% cytotoxic dose (CD50 in µg/ml) was defined as the concentration of compound that reduced the absorbance of the mock-infected control sample by 50%. The percent protection achieved by the compound in HIV-infected cells was calculated by the following formula: ((ODT )HIV - (ODC )HIV)/((ODC )MOCK - (ODC )HIV) [formula] expressed in %, whereby (ODT)HIV is the optical density measured with a given concentration of the test compound in HIV-infected cells; (ODC)HIV is the optical density measured for the control untreated HIV-infected cells; (ODC)MOCK is the optical density measured for the control untreated mock-infected cells; all optical density values were determined at 540 nm. The dose achieving 50% protection according to the above formula was defined as the 50% effective dose (ED50 in µg/ml). The ratio of CD50 to ED50 was defined as the selectivity index (SI).

HIV = assay: Inhibition of HIV-induced cytopathic effect in MT-4 cells (MTT); format: cell-based; details: for EC50: Human immunodeficiency virus 1, MT4, dose achieving 50% protection of HIV-infected MT-4 cells, MTT, 540 nm, read-out: ED50 (50% effective dose); for SI (selectivity index): ratio of CD50 to ED50
Method: as §1

SMILES | CC50 (in vitro) | EC50 (HIV) | SI (selectivity index) (HIV)
CCC(=CCN1Cc2cc(Cl)cc3[nH]c(=O)n(c23)C[C@@H]1C)CC [compound 2] | > 10 µg/mL | 0.032 µg/mL (≈ 0.0958 µM) | >312
CCC(=CCN1Cc2cc(Cl)cc3[nH]c(=S)n(c23)C[C@@H]1C)CC.Cl [compound 7, (-)-(S)-9-chloro-6-(3-ethyl-2-pentenyl)-4,5,6,7-tetrahydro-5-methylimidazo[4,5,1-jk][1,4]benzodiazepine-2(1H)-thione monohydrochloride] | 5.2 µg/mL | 0.006 µg/mL | 850
CCC(=CCN1Cc2c(C)ccc3[nH]c(=O)n(c23)C[C@@H]1C)CC [compound 5, (+)-(S)-6-(3-ethyl-2-pentenyl)-4,5,6,7-tetrahydro-5,8-dimethylimidazo-[4,5,1-jk][1,4]benzodiazepin-2(1H)-one] | 14.3 µg/mL (≈ 45.6 µM) | 0.038 µg/mL (≈ 0.121 µM) | 370
